Data set [1] concerns the target T1, human DGAT2 (Homo sapiens, UniProt Q96PD7).
T1 sequence (Q96PD7 1-388): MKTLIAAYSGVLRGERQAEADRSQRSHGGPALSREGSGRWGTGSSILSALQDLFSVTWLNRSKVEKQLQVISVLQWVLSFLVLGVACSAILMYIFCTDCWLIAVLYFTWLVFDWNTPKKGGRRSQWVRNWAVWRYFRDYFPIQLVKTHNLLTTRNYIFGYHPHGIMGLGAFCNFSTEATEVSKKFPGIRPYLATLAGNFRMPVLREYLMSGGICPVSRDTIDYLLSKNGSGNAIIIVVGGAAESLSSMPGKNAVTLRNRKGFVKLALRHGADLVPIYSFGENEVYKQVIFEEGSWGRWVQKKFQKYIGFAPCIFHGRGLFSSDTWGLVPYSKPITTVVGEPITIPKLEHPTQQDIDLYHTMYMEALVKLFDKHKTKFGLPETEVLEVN
Description: Diacylglycerol Acyltransferase 2 (DGAT2) Cell-Based Assay (HepG2, 13C18-oleate incorporation into triolein). On the set-up: This assay uses human hepatoma cell-line, HepG2, as a source of acyltransferase activity; endogenous in cells; host or cells: HepG2 (human hepatoma). The note with it: HepG2 cells, 13C18-oleate incorporation into triolein normalized to POPC; geometric mean. As to the method:
Diacylglycerol Acyltransferase 2 (DGAT2) Cell-Based Assay
The inhibitory activity of compounds against human DGAT2 in a cell environment is evaluated in this assay. This assay uses human hepatoma cell-line, HepG2, as a source of acyltransferase activity.
HepG2 cell line is a commonly used model for metabolic reactions that occur in human hepatocytes in vivo. Synthesis of triglyceride in this cell line is followed by measuring incorporation of isotopically labeled oleate into triolein (a triglyceride with 3 oleoyl moieties).
Dispense the HepG2 cells into a 96-well microplate, which has been previously coated with Poly-D-lysine, in an amount of 50,000 cells/well in 100 μL Minimal Essential Media (MEM) with 10% Fetal Bovine Serum (FBS). Incubate the cells for 16 hr at 37° C. Replace the cell culture medium with MEM containing 2% Bovine Serum Albumin Dissolve the test compound in 0.5% DMSO and prepare serial dilutions in half-log increments. Add the serially diluted test compound into separate wells. Incubate for 0.5 hr at 37° C. Thereafter replace the cell culture medium with a medium of the same composition, but which includes 50 μM ^13C18-oleate and 300 μM hydropropyl-β-cyclodextrine. Incubate for an additional 4 hr at 37° C. Discard the cell culture medium by flipping the microplate over thereby draining the wells and then soaking up any residual media from the wells with a paper towel. […]

Data set [2] deals with LDL-c, VLDL-c and TG serum concentrations. Put plainly: In Vivo Efficacy Model (LDL receptor-deficient mice). The note with it: male LDL receptor-deficient mice, fourteen days, serum vs control group. As to the method: This assay measures the potency of compounds by measuring the reduction in low density lipoprotein cholesterol (LDL-c), very low density lipoprotein cholesterol (VLDL-c), and triglycerides (TG). Male, LDL receptor-deficient mice (29 weeks old, each approximately 30 g in weight) are used in this assay.
Feed the mice a standard mouse chow diet for two weeks prior to dosing. Prepare a test solution for oral gavage by suspend the compounds in acacia at 0.3, 1, and 3 mg/mL. Separate the mice into a test group and a control group. Thereafter at the first day of the third week dose the mice in the test group with the test solution for fourteen days, BID. Similarly dose the mice in the control group with just the vehicle without any of the test compound. Four hours after the last dose euthanized the mice with CO2. Immediately collect the blood via cardiac puncture. Isolate the serum to measure serum triglycerides as well as cholesterol in individual lipoprotein fractions. Separate the lipoprotein fractions by known HPLC methods. Determine the cholesterol concentration associated with each lipoprotein fraction by a colorimetric method (Roche Cholesterol/HP Reagent 11875540), using isolated lipoprotein fractions with known cholesterol concentration as standards. Results obtained at the highest dose, 30 mg/kg, BID, expressed as the percentage of change in comparison of the LDL-c, VLDL-c and TG serum concentrations of mice in the test group to those of mice n the control group.
To enable absorption of Example 2 at the 30 mg/kg dose, prepare that compound as 1:1 (w/w) dry mixture with hydroxypropyl methylcellulose prior to addition to acacia vehicle.

For data set [3], the target named is T1, human DGAT2. Description: Diacylglycerol Acyltransferase 2 (DGAT2) Biochemical Assay. The note with it: recombinant human DGAT2 (FLAG tag, SF9), 14C oleoyl-CoA, 1 hr RT; geometric mean. The arrangement: FLAG (N); made in house; host or cells: insect SF9 cells. As to the method: Diacylglycerol Acyltransferase 2 (DGAT2) Biochemical Assay
The in vitro inhibitory activity of compounds against human DGAT2 is evaluated in this assay. The assay uses recombinant human DGAT2 with a FLAG tag at the amino terminus, expressed in genetically engineered insect SF9 cells, and purified through affinity chromatography.
DGAT2 catalyzes transfer of an acyl moiety from acyl-Coenzyme A onto diacylglycerol, to form triacylglycerol. In this particular embodiment of the assay oleate is used as the acyl moiety that is transferred. To facilitate miscibility of all lipid components, all lipids used in the assay contain oleyl moiety as the only acyl group. […]
Mix SUV suspensions and compound solution with other components of the assay to achieve the following concentration of individual ingredients: TrisHCl (pH 7.5, 150 mM), sucrose (250 mM), MgCl2 (5 mM), dithiothreitol (DTT) (0.5 mM), oleoyl coenzyme A (oleoyl-CoA) (12 μM), 1-^14C oleoyl coenzyme A (oleyl-CoA-^14C) (8 μM), dioleoyl glycerol (DOG) (0.6 mM), and dioleoyl phosphatidylcholine (DOPC) (1.4 mM), DGAT2 protein (0.5 nM), DMSO (1%, v/v), with test compound concentration within a 1 nM to 100 μM range, in 30 μl total volume. […] Measure the radioactivity using a Perkin-Elmer TopCount instrument. […] Calculate the degree of inhibition of DGAT2 by measuring the radioactivity at 10 different concentrations for each compound. […]

The next data set has as its system plasma triglycerides. Description: In Vivo Pharmacodynamic Assay (reduction in plasma triglycerides). The note with it: Mus musculus, po, male C57BL6 mice, gavage 0.1 to 10 mg/kg with 3 mg/kg DGAT1 inhibitor, tyloxapol. As for the experimental part: In Vivo Pharmacodynamic Assay
This assay measures the potency of compounds by measuring the reduction in plasma triglycerides in mice treated with the test compounds compared to control animals that are treated only with the vehicle solution. Male, C57BL6 mice (10-11 weeks old, each approximately 22 g in weight) are used in this assay.
Triglycerides synthesized in the liver are secreted into circulation as a component of the Very Low Density Lipoprotein (VLDL). To prevent degradation of triglycerides in circulation by the Lipoprotein Lipase (LPL), this assay uses IV injection of a detergent, tyloxapol, which inhibits activity of LPL. Since another enzyme, DGAT1, participates in the synthesis of liver triglyceride, a saturating dose of a DGAT1 inhibitor (sodium{trans-4-[4-(4-amino-7,7-dimethyl-7H-pyrimido[4,5-b][1,4]oxazin-6-yl)phenyl]cyclohexyl}acetate, IUPAC ACDLABS naming convention, see Dow et al. Bioorg. & Med. Chem., (2011) 21(20), 6122-6128) is also used in this assay. […]
Collect the blood via cardiac puncture into tube containing the anti-coagulant EDTA. […] Freeze the plasma samples on dry ice until they are to be analyzed. […] Reduction in total triglycerides in the test mice is calculated relative to the concentration of triglycerides in the control mice.

The test system of another data set is liver fat content. The note with it: therapy with lomitapide; cited from earlier work.
Setting [4] is: 30 mg/kg BID oral gavage in acacia.
Where [5] appears, read: 30 mg/kg BID, compound as 1:1 (w/w) dry mixture with hydroxypropyl methylcellulose in acacia.

This is an account of results in patent US9073901B2, “DGAT2 inhibitors” (Eli Lilly and Company, priority 2013, dated 2015).

Molecules are shown by their SMILES.

For orientation: IC50 means the concentration that inhibits the measured activity by half. As usually defined, the ED50 is the dose at which the effect has come halfway, by size or by number of responders. Read a low ED50 as an effect at a small dose. On human DGAT2 [1], `CNS(=O)(=O)Cc1ccc(Oc2cc(CNc3ncc(Cl)cn3)nc(C)n2)cc1` [Example 1, 1-[4-[6-[[(5-Chloropyrimidin-2-yl)amino]methyl]-2-methyl-pyrimidin-4-yl]oxyphenyl]-N-methyl-methanesulfonamide] showed an IC50 of 150 nM. Besides, in data set [2] (setting [4]), the “% change LDL-c” value is −51%, the “% change Triglycerides” value is reported as −63% and the “% change VLDL-c” value is −75%. Further, the half-inhibitory concentration (IC50) on human DGAT2 [3] was 91 nM. Besides, in the data set on plasma triglycerides, it took a dose of 0.29 mg/kg to reach the 50% effect level (ED50).

`Cc1nc(CNc2ncc(Cl)cn2)cc(Oc2ccc(CS(N)(=O)=O)cc2)n1` [Example 2] returned a half-inhibitory concentration (IC50) at human DGAT2 [1] of 150 nM. In addition, in data set [2] (setting [5]), the “% change LDL-c” value is given as −55%, the “% change Triglycerides” value is listed as −72% and the “% change VLDL-c” value is −82%. Moreover, the IC50 at human DGAT2 [3] worked out at 120 nM. The molecule also came in with an ED50 in the data set with plasma triglycerides of 0.27 mg/kg.

Take `O=C(NC1CCN(CCCCC2(C(=O)NCC(F)(F)F)c3ccccc3-c3ccccc32)CC1)c1ccccc1-c1ccc(C(F)(F)F)cc1` [lomitapide]: the “increase in the liver fat content” value with liver fat content is recorded as 8 fold.
